Values of other authors, collected in patent publication US20240424024A1, “PHARMACEUTICAL COMPOSITION AND KIT COMPRISING AN IMMUNOMODULATORY SUBSTANCE FOR TREATING DISEASES” (ellennbe GmbH, priority 2021, published 2024).

Tested on: perfusion of the skin
Settings: 50 μl of 20 mmol/l MN, healthy subjects, Laser Speckle Contrast Imager; Elawa et al. 2020

SMILES: COC(=O)c1cccnc1 [methyl nicotinate]
- perfusion increase of the skin after topical application: reaches a stable plateau phase after five minutes
